Test results reported in the supplement of paper PMC10627819.

Key:
S. aureus Newman [1] = assay: fitness (endpoint OD595 vs no drug) (fraction); higher = more growth
Outline: (§1)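 Plates with 384 wells were inoculated at OD595 0.01 using 30 µl of TSB, LB Lennox or CY, or 55 µl for S. pneumoniae. Incubation was at 37 °C, with OD595 measured every 30 min for 14 h. Fitness is the stationary-phase transition optical density over the robust mean of no-drug control wells, after first-reading background subtraction; it is capped at 1.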

S. aureus DSM 20231 [2] = assay: as above
Outline: as §1

B. subtilis 168 = assay: Bliss interaction score (quartile over a dose matrix) (fitness difference); higher = more antagonism (negative = synergy)
Outline: (§2)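 Fitness was defined as normalised growth: OD595 at the start of stationary phase divided by the plate's robust no-drug mean and capped at 1. Single-drug fitness was inferred from combination measurements. The Bliss score is observed fitness minus the product of the single-drug values, summarised by quartiles across technical, biological and donor/recipient replicates.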

S. aureus Newman [3] = assay: as above
Outline: as §2

S. pneumoniae D39V = assay: as above
Outline: as §2

S. aureus DSM 20231 [4] = assay: as above
Outline: as §2
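Wherever Bliss interaction score (quartile over a dose matrix) is given: first quartile when negative (synergy) and third quartile when positive (antagonism).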

O=C(N[C@H](CO)[C@H](O)c1ccc([N+](=O)[O-])cc1)C(Cl)Cl [Chloramphenicol] + CN[C@@H]1[C@H](O)[C@H](NC)[C@H]2O[C@@]3(O)C(=O)C[C@@H](C)O[C@H]3O[C@@H]2[C@H]1O [Spectinomycin]
fitness
Conditions	first compound 0.75 µg/mL	first compound 1.5 µg/mL	first compound 3 µg/mL
S. aureus DSM 20231 [2], partner 4 µg/mL	0.556	0.539	0.12
S. aureus DSM 20231 [2], partner 8 µg/mL	0.665	0.511	0.117
S. aureus DSM 20231 [2], partner 16 µg/mL	0.657	0.376	0.15
S. aureus Newman [1], partner 4 µg/mL	0.725	0.441	0.207
S. aureus Newman [1], partner 8 µg/mL	0.722	0.42	0.172
S. aureus Newman [1], partner 16 µg/mL	–	–	0.0732

fitness, one replicate
Conditions	first compound 0.75 µg/mL	first compound 1.5 µg/mL	first compound 3 µg/mL
S. aureus DSM 20231 [2], partner 32 µg/mL	0.493	0.259	0.0743
S. aureus DSM 20231 [2], partner 64 µg/mL	0.0559	0.0436	0.0235
S. aureus Newman [1], partner 32 µg/mL	0.155	0.0442	0.0229
S. aureus Newman [1], partner 64 µg/mL	0.0289	0.0929	0.0827

Conditions	Bliss interaction score
B. subtilis 168	-0.0556
S. aureus DSM 20231 [4]	-0.0533
S. aureus Newman [3]	-0.107
S. pneumoniae D39V	-0.0595

O=C(N[C@H](CO)[C@H](O)c1ccc([N+](=O)[O-])cc1)C(Cl)Cl [Chloramphenicol] + CN[C@H](CC(C)C)C(=O)N[C@H]1C(=O)N[C@@H](CC(N)=O)C(=O)N[C@H]2C(=O)N[C@H]3C(=O)N[C@H](C(=O)N[C@H](C(=O)O)c4cc(O)cc(O)c4-c4cc3ccc4O)[C@H](O)c3ccc(c(Cl)c3)Oc3cc2cc(c3O[C@@H]2O[C@H](CO)[C@@H](O)[C@H](O)[C@H]2O[C@H]2C[C@](C)(N)[C@H](O)[C@H](C)O2)Oc2ccc(cc2Cl)[C@H]1O [Vancomycin]
fitness
Conditions	first compound 0.75 µg/mL	first compound 1.5 µg/mL	first compound 3 µg/mL
S. aureus DSM 20231 [2], partner 0.1875 µg/mL	0.669	0.608	0.165
S. aureus DSM 20231 [2], partner 0.375 µg/mL	0.7	0.654	0.142
S. aureus DSM 20231 [2], partner 0.75 µg/mL	–	0.652	0.15
S. aureus Newman [1], partner 0.1875 µg/mL	0.874	–	–
S. aureus Newman [1], partner 0.375 µg/mL	0.877	0.607	–
S. aureus Newman [1], partner 0.75 µg/mL	0.836	0.634	0.23

Conditions	Bliss interaction score
B. subtilis 168	-0.0535
S. aureus DSM 20231 [4]	0.07
S. aureus Newman [3]	0.079
S. pneumoniae D39V	-0.0896

O=C(N[C@H](CO)[C@H](O)c1ccc([N+](=O)[O-])cc1)C(Cl)Cl [Chloramphenicol] + COc1c(N2C[C@@H]3CCCN[C@@H]3C2)c(F)cc2c(=O)c(C(=O)O)cn(C3CC3)c12 [Moxifloxacin]
fitness
Conditions	first compound 0.75 µg/mL	first compound 1.5 µg/mL	first compound 3 µg/mL
S. aureus DSM 20231 [2], partner 0.0075 µg/mL	0.578	0.633	–
S. aureus DSM 20231 [2], partner 0.015 µg/mL	0.714	0.636	0.113
S. aureus DSM 20231 [2], partner 0.03 µg/mL	0.613	0.562	0.0861
S. aureus Newman [1], partner 0.0075 µg/mL	0.738	0.566	0.214
S. aureus Newman [1], partner 0.015 µg/mL	0.647	0.487	0.166
S. aureus Newman [1], partner 0.03 µg/mL	–	0.364	–

fitness, S. aureus DSM 20231 [2], one replicate
Conditions	first compound 0.75 µg/mL	first compound 1.5 µg/mL	first compound 3 µg/mL
partner 0.06 µg/mL	0.67	0.635	0.0943
partner 0.12 µg/mL	0.591	0.58	0.118

Conditions	Bliss interaction score
B. subtilis 168	0.0443
S. aureus DSM 20231 [4]	0.148
S. aureus Newman [3]	0.16
S. pneumoniae D39V	0.0681

O=C(N[C@H](CO)[C@H](O)c1ccc([N+](=O)[O-])cc1)C(Cl)Cl [Chloramphenicol] + COc1ccc(C[C@H](N)C(=O)N[C@H]2[C@@H](O)[C@H](n3cnc4c(N(C)C)ncnc43)O[C@@H]2CO)cc1 [Puromycin]
fitness
Conditions	first compound 0.75 µg/mL	first compound 1.5 µg/mL	first compound 3 µg/mL
S. aureus DSM 20231 [2], partner 0.39 µg/mL	0.764	–	0.11
S. aureus DSM 20231 [2], partner 0.78 µg/mL	0.759	0.585	0.0684
S. aureus DSM 20231 [2], partner 1.56 µg/mL	0.782	0.455	–
S. aureus Newman [1], partner 0.39 µg/mL	0.764	0.502	0.145
S. aureus Newman [1], partner 0.78 µg/mL	0.777	0.501	0.121
S. aureus Newman [1], partner 1.56 µg/mL	0.807	0.501	–

fitness, S. aureus DSM 20231 [2], one replicate
Conditions	first compound 0.75 µg/mL	first compound 1.5 µg/mL	first compound 3 µg/mL
partner 3.12 µg/mL	0.771	0.231	0.0598
partner 6.24 µg/mL	0.387	–	0.0594

Conditions	Bliss interaction score
B. subtilis 168	-0.0629
S. aureus DSM 20231 [4]	0.0724
S. aureus Newman [3]	-0.111
S. pneumoniae D39V	-0.0967

O=C(N[C@H](CO)[C@H](O)c1ccc([N+](=O)[O-])cc1)C(Cl)Cl [Chloramphenicol] + C[C@@H]1O[C@@H]1P(=O)(O)O [Fosfomycin]
fitness
Conditions	first compound 0.75 µg/mL	first compound 1.5 µg/mL	first compound 3 µg/mL
S. aureus DSM 20231 [2], partner 0.781 µg/mL	0.633	0.473	0.116
S. aureus DSM 20231 [2], partner 1.562 µg/mL	0.558	0.402	0.0874
S. aureus DSM 20231 [2], partner 3.124 µg/mL	0.436	0.265	0.0652
S. aureus Newman [1], partner 0.781 µg/mL	0.491	0.394	0.117
S. aureus Newman [1], partner 1.562 µg/mL	0.452	0.272	0.0456
S. aureus Newman [1], partner 3.124 µg/mL	0.117	0.0322	0.0343

Conditions	Bliss interaction score
B. subtilis 168	0.129
S. aureus DSM 20231 [4]	0.0517
S. aureus Newman [3]	-0.108
S. pneumoniae D39V	0.0635

O=C(N[C@H](CO)[C@H](O)c1ccc([N+](=O)[O-])cc1)C(Cl)Cl [Chloramphenicol] + C[n+]1ccc(-c2cc[n+](C)cc2)cc1 [Paraquat]
fitness
Conditions	first compound 0.75 µg/mL	first compound 1.5 µg/mL	first compound 3 µg/mL
S. aureus DSM 20231 [2], partner 1.25 µg/mL	0.684	0.564	0.121
S. aureus DSM 20231 [2], partner 2.5 µg/mL	0.711	0.626	0.159
S. aureus DSM 20231 [2], partner 5 µg/mL	0.688	0.618	0.158
S. aureus Newman [1], partner 1.25 µg/mL	0.724	0.423	0.164
S. aureus Newman [1], partner 2.5 µg/mL	0.715	0.429	0.15
S. aureus Newman [1], partner 5 µg/mL	0.739	0.476	–

Conditions	Bliss interaction score
B. subtilis 168	0.0402
S. aureus DSM 20231 [4]	0.0604
S. aureus Newman [3]	-0.058
S. pneumoniae D39V	0.0595

O=C(N[C@H](CO)[C@H](O)c1ccc([N+](=O)[O-])cc1)C(Cl)Cl [Chloramphenicol] + Cc1cc(NS(=O)(=O)c2ccc(N)cc2)no1 [Sulfamethoxazol]
fitness
Conditions	first compound 0.75 µg/mL	first compound 1.5 µg/mL	first compound 3 µg/mL
S. aureus DSM 20231 [2], partner 1 µg/mL	0.614	0.541	0.115
S. aureus DSM 20231 [2], partner 2 µg/mL	0.652	0.526	0.102
S. aureus DSM 20231 [2], partner 4 µg/mL	0.709	0.49	–
S. aureus Newman [1], partner 1 µg/mL	0.837	0.583	0.199
S. aureus Newman [1], partner 2 µg/mL	0.899	0.652	0.172
S. aureus Newman [1], partner 4 µg/mL	0.909	0.647	0.179

S. aureus Newman [1], partner 8 µg/mL, one replicate
Conditions	fitness
first compound 0.75 µg/mL	0.889
first compound 1.5 µg/mL	0.694
first compound 3 µg/mL	0.35

Conditions	Bliss interaction score
B. subtilis 168	0.0483
S. aureus DSM 20231 [4]	-0.0341
S. aureus Newman [3]	0.0702
S. pneumoniae D39V	-0.0682

O=C(N[C@H](CO)[C@H](O)c1ccc([N+](=O)[O-])cc1)C(Cl)Cl [Chloramphenicol] + Cc1onc(-c2ccccc2)c1C(=O)N[C@@H]1C(=O)N2[C@@H]1SC(C)(C)[C@@H]2C(=O)O [Oxacillin]
fitness
Conditions	first compound 0.75 µg/mL	first compound 1.5 µg/mL	first compound 3 µg/mL
S. aureus DSM 20231 [2], partner 0.0156 µg/mL	0.677	0.461	–
S. aureus DSM 20231 [2], partner 0.0312 µg/mL	0.6	0.392	0.113
S. aureus DSM 20231 [2], partner 0.0625 µg/mL	0.489	0.478	0.0972
S. aureus Newman [1], partner 0.0156 µg/mL	0.734	0.573	0.253
S. aureus Newman [1], partner 0.0312 µg/mL	0.617	0.484	0.143
S. aureus Newman [1], partner 0.0625 µg/mL	0.555	0.359	–

Conditions	Bliss interaction score
B. subtilis 168	-0.0473
S. aureus DSM 20231 [4]	0.0696
S. aureus Newman [3]	0.0445
S. pneumoniae D39V	0.0937

O=C(N[C@H](CO)[C@H](O)c1ccc([N+](=O)[O-])cc1)C(Cl)Cl [Chloramphenicol] + Cn1nnc(-c2ccc(-c3ccc(N4C[C@H](CO)OC4=O)cc3F)cn2)n1 [Tedizolid]
fitness
Conditions	partner 0.0625 µg/mL	partner 0.125 µg/mL	partner 0.25 µg/mL
S. aureus DSM 20231 [2], first compound 0.75 µg/mL	0.584	0.538	0.189
S. aureus DSM 20231 [2], first compound 1.5 µg/mL	0.412	0.285	0.168
S. aureus DSM 20231 [2], first compound 3 µg/mL	0.0827	0.07	0.0466
S. aureus Newman [1], first compound 3 µg/mL	–	0.095	0.0603

Conditions	Bliss interaction score
B. subtilis 168	-0.101
S. aureus DSM 20231 [4]	-0.157
S. aureus Newman [3]	-0.179
S. pneumoniae D39V	-0.068
